In ChEMBL document CHEMBL1201862, “PubChem BioAssay data set” (2004):
Values belong to the molecule of their own block, whether it stands above or below them. Active and inactive are the calls of the source.

Legend:
[1] = Luminescence-based dose response cell-based high throughput screening assay for cytotoxic compounds using the IEC-6 intestinal epithelial cell line. [Related pubchem assays: 1858 (Summary AID.), 1825 (Counterscreen.), 1907 (Confirmation screen.)]; type: functional
[2] = biological target: Prothrombin (Homo sapiens, UniProt P00734); assay: Thrombin 1536 HTS Dose Response Confirmation. [Related pubchem assays: 1046 (Thrombin 1536 HTS; hits were confirmed in this assay)]; type: functional
[3] = reduced cellular PGC1a acetyl-lysine signal – cell-based, cherry-picked samples, dose response (AID 720514); type: functional;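 note: potency may reflect raised or lowered acetylation signal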
[4] = biological target: T1, Hexokinase HKDC1 (Homo sapiens, UniProt Q2TB90); assay: inhibition of HKDC1 glucose phosphorylation – biochemical, W721R variant, dose response (AID 504729); type: functional
T1 sequence (Q2TB90 whole entry): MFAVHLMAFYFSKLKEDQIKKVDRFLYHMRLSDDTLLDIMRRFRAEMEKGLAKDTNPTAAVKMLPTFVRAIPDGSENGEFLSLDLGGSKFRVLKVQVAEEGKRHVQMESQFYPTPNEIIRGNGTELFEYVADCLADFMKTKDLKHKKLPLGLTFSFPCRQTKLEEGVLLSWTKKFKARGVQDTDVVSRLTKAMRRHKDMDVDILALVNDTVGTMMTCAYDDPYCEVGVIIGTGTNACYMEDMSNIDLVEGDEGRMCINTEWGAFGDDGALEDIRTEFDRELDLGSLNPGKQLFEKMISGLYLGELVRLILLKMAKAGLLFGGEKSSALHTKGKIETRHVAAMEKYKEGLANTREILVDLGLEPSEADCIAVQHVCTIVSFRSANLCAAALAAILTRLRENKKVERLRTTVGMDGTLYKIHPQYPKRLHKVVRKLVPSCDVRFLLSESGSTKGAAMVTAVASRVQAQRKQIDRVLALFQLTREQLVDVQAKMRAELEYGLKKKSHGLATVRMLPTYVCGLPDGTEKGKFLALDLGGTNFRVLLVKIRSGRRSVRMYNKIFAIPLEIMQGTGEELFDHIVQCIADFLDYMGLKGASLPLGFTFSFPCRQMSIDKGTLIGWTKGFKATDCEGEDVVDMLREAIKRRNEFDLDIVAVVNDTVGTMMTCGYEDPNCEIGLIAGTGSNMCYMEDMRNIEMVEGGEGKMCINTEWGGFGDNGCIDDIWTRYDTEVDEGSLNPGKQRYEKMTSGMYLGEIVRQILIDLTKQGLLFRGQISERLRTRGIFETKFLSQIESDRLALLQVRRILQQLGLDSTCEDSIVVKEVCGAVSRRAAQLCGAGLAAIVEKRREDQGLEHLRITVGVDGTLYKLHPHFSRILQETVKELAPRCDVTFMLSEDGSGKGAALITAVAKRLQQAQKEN

[5] = test system: HEK293; assay: inhibition of NOD1-driven NF-kB reporter – cell-based, luminescence, uHTS, primary screen (AID 1578); type: functional; settings: Homo sapiens
[6] = test system: HEK293; assay: cells; type: functional, cell-based; settings: Homo sapiens
[7] = test system: HEK293; assay: cells; type: functional, cell-based; settings: Homo sapiens; remark: listed apart in the source
[8] = test system: HEK293; assay: NOD2 signaling inhibitors in MDP-stimulated cells, cell-based, uHTS, luminescence (AID 2001); type: functional; settings: Homo sapiens
[9] = biological target: Tumor necrosis factor (Homo sapiens, UniProt P01375); assay: analog potency on TNFa NF-kB signaling – cell-based, revised, SAR follow-up (AID 2337); type: functional
[10] = biological target: T2, Nucleotide-binding oligomerization domain-containing protein 1 (Homo sapiens, UniProt Q9Y239); assay: blockers of NOD1 pathway activity – revised, SAR follow-up (AID 2333); type: functional
T2 sequence (Q9Y239 whole entry): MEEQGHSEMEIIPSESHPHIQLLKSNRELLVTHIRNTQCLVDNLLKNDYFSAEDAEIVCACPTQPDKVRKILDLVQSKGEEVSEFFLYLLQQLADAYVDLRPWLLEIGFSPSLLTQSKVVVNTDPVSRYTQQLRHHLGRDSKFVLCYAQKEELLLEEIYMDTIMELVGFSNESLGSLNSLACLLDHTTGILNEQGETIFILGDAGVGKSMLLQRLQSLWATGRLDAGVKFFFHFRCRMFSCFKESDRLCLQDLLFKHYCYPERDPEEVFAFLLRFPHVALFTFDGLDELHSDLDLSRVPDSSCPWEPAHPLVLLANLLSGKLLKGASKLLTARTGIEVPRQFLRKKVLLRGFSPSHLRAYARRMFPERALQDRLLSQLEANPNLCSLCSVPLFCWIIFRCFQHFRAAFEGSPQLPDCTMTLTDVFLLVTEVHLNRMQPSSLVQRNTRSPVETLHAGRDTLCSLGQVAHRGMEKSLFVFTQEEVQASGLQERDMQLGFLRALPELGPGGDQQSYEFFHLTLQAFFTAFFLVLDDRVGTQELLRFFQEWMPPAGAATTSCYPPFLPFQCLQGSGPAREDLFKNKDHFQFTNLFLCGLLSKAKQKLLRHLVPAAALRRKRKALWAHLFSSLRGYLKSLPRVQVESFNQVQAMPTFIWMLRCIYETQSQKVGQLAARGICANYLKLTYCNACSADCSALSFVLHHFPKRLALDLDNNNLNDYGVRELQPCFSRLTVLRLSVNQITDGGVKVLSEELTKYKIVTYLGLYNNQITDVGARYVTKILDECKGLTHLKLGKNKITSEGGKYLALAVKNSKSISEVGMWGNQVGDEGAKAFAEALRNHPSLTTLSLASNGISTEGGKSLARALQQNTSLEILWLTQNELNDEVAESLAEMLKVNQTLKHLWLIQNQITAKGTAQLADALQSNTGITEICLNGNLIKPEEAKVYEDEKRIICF

[11] = test system: INS1; assay: INS-1E survival protection against cytokine death – cell-based, luminescence, retest, dose response (AID 449756); type: functional; settings: Rattus norvegicus;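 note: cell death triggered by IL-1 beta plus TNF-alpha plus IFN-gamma mixture; protective hits raise ATP signal compared with cytokine alone wells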
[12] = reduction of Shn3 3'UTR-driven luciferase in osteoblasts – cell-based, Clone20 osteoblasts, firefly luciferase, cherry-picked, dose response (AID 624132); type: functional;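 note: firefly luciferase luminescence from reporter carrying the Shn3 3'UTR in osteoblasts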
[13] = non-specific 3'UTR reporter inhibition in Clone20-Shn3RL – cell-based, Renilla luciferase, cherry-picked, counter-screen for Shn3 inhibitor project, dose response (AID 624133); type: functional
[14] = biological target: T3, COUP transcription factor 2 (Homo sapiens, UniProt P24468); assay: Luminescence-based cell-based high throughput dose response assay to identify inhibitors of COUP-TFII (NR2F2).; type: functional;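 note: HEK293 cells transiently cotransfected with COUP-TFII expression vector and reporter; luciferase reporter luminescence driven by COUP-TFII from the pX2-168 reporter plasmid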
T3 sequence (P24468 whole entry): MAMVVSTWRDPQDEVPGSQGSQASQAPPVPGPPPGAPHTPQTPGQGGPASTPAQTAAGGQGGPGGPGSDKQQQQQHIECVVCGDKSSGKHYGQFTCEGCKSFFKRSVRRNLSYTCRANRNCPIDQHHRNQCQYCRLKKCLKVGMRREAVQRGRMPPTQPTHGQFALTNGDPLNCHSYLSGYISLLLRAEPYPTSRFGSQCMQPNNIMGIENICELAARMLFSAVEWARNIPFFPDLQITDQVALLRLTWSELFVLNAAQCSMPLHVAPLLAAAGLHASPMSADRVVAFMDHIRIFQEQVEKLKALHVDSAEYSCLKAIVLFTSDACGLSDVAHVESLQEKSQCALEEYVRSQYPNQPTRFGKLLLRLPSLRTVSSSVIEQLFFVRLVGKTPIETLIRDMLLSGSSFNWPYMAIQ

[15] = test system: HEK293; assay: cells; settings: Homo sapiens

Chain of Tumor necrosis factor (P01375 whole entry, the tested form may be a part): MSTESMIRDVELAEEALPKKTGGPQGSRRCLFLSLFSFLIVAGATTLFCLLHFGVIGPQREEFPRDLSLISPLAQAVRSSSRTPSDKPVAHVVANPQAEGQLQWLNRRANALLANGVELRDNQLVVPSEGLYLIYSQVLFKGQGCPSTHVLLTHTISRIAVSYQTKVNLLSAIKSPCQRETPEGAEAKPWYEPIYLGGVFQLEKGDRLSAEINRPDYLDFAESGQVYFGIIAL

Structure (SMILES): CN1CCC(NCCC(c2ccc(F)cc2)c2ccc(Cl)cc2)CC1 (configuration not stated)
- IC50 [1]: 5.34 µM (active)

- IC50 [2]: > 50 µM (not active)
Structure (SMILES): COc1cccc(-c2nnc(SCC(=O)Nc3ccc4c(c3)OCCO4)n2Cc2ccco2)c1

Structure (SMILES): COc1cccc(-n2c(Cc3cc(O)nc(O)n3)nnc2SCc2cccc(C(F)(F)F)c2)c1
- AC50 [3]: 35.1 µM (active)

- IC50 [4]: 20.4 µM (inactive)
Structure (SMILES): COc1ccc(OC)c2nc(O)c(CCNC(=O)c3cc4ccccc4o3)cc12

- IC50 [2]: 2.17 µM (active)
Structure (SMILES): CC(=O)c1sc2ccccc2c1OC(=O)c1ccco1

Structure (SMILES): Cc1cc(C(=O)NC2CCCc3c2cnn3-c2cccc(C)c2C)n(C)n1 (configuration not stated)
- EC50 [5]: 0.17 µM (active)
- IC50 [6]: 0.922 µM (active)
- IC50 [7]: > 20 µM (inactive)
- IC50 [8]: 0.609 µM (inactive)
- IC50 [9]: 0.703 µM (active)
- IC50 [10]: 0.289 µM (active)
- AC50 [11]: 0.216 µM (active)
- AC50 [12]: < 0.26 µM (active)
- AC50 [13]: < 0.26 µM (active)
- IC50 [14]: 0.628 µM (active)
- IC50 [15]: > 20 µM (inactive)

- IC50 [2]: > 50 µM (not active)
Structure (SMILES): O=C(COc1ccc(S(=O)(=O)Nc2ccccc2)cc1)N1CCOCC1
